Blank lines part the entries; values can stand above or below the compound they belong to. Square brackets hold non-standard residues; d marks the D form. Peptide text beside a SMILES is read from it. Dip = N[C@H](C(=O)O)C(c1ccccc1)c1ccccc1; Chg = N[C@H](C(=O)O)C1CCCCC1; NMeA = CN[C@@H](C)C(=O)O
Columns and labels:
[1] = target: T1, B-cell lymphoma 6 protein (Homo sapiens, UniProt P41182, C67R/C84N/C8Q); test: Inhibition of BCL6 BTB domain (5 to 129 residues) C8Q/C67R/C84N triple mutant (unknown origin) expressed in Escherichia coli BL21(DE3) cells using 5-TAMRA-RSEIISTAPSSWVVPG incubated for 1 hr by fluorescence polarization assay
[2] = Antiproliferative activity against human SK-N-BE2 cells after 72 hrs by CyQUANT reagent based assay relative to control; format: functional; conditions: SKNBE2
[3] = cells; conditions: Homo sapiens, SKNBE2, 72 h
[4] = target: T2, Androgen receptor (Homo sapiens, UniProt P10275); test: Inhibition of androgen receptor LBD domain (unknown origin)
T2 sequence (P10275 whole entry): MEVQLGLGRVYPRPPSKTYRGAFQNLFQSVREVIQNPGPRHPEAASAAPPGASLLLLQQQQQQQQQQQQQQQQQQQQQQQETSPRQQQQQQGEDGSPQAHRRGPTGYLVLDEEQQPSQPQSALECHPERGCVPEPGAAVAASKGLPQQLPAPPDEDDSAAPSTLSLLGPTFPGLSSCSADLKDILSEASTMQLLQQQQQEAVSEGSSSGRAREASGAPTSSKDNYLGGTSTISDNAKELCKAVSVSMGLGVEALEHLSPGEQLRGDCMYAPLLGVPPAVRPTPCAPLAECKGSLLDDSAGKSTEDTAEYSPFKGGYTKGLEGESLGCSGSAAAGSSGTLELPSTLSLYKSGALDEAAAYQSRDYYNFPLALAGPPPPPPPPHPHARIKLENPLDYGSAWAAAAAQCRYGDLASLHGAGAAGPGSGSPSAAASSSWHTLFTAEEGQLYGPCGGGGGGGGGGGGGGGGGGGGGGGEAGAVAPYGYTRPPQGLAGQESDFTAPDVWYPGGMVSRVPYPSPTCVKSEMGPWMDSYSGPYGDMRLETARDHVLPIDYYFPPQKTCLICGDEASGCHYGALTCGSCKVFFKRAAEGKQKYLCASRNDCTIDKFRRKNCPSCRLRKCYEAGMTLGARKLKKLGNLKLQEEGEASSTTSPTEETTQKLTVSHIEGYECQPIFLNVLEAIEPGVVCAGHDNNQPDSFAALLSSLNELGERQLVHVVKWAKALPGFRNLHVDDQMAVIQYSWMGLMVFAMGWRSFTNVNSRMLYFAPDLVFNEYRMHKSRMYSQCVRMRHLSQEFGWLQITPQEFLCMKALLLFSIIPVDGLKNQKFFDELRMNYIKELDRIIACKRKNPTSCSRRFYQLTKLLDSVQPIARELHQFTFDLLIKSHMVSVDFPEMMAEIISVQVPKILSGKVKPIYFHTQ

[5] = Selectivity ratio of IC50 for human IOSE144 cells to IC50 for human OVCAR3 cells; format: functional
[6] = Selectivity ratio of IC50 for human IOSE144 cells to IC50 for human A2780 cells; format: functional
[7] = tested on: OVCAR-3; test: Growth inhibition of human OVCAR3 cells incubated for 48 hrs by MTT assay; format: functional, cell-based; conditions: OVCAR-3, 48 h
[8] = tested on: A2780; test: Growth inhibition of human A2780 cells incubated for 48 hrs by MTT assay; format: functional, cell-based; conditions: A2780, 48 h
[9] = target: B-cell lymphoma 6 protein (Homo sapiens) (UniProt P41182); test: Induction of BCL6 degradation in human SU-DHL-4 cells at 5 uM measured after 2 hrs by capillary electrophoresis relative to control; format: cell-based
[10] = target: B-cell lymphoma 6 protein (Homo sapiens) (UniProt P41182); test: Induction of BCL6 degradation in human SU-DHL-4 cells at 5 uM measured after 5 mins by capillary electrophoresis relative to control; format: cell-based
[11] = target: Baculoviral IAP repeat-containing protein 2 (Homo sapiens, UniProt Q13490); test: Binding affinity to c-IAP1-BIR3 (unknown origin) (124 to 240 residues) expressed in Escherichia coli BL21-Gold (DE3) by surface plasmon resonance assay
Baculoviral IAP repeat-containing protein 2, sequence (Q13490 whole entry, the tested form may be a part): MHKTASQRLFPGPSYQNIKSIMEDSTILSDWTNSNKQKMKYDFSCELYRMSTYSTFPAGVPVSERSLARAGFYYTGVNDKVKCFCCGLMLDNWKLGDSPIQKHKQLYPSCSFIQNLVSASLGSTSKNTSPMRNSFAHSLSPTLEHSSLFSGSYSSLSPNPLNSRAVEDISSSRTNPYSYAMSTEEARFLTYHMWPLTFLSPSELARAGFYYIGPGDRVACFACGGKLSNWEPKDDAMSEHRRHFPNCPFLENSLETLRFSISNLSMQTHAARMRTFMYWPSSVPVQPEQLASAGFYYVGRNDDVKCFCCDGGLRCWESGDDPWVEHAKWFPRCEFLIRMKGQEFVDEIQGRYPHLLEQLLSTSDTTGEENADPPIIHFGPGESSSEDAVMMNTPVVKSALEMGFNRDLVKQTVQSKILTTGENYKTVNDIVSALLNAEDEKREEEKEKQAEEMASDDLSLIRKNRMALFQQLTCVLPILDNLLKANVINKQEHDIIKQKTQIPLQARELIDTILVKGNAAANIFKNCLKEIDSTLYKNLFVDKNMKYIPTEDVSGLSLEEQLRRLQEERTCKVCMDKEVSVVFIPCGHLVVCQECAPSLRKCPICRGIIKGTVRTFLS

[12] = target: E3 ubiquitin-protein ligase XIAP (Homo sapiens, UniProt P98170); test: Binding affinity to XIAP-BIR3 (unknown origin) (124 to 240 residues) expressed in Escherichia coli BL21-Gold (DE3) by surface plasmon resonance assay
[13] = target: Leucine-rich repeat serine/threonine-protein kinase 2 (Homo sapiens, UniProt Q5S007, G2019S); test: Inhibition of LRRK2 G2019S mutant (unknown origin)
Leucine-rich repeat serine/threonine-protein kinase 2, sequence (Q5S007 whole entry G2019S): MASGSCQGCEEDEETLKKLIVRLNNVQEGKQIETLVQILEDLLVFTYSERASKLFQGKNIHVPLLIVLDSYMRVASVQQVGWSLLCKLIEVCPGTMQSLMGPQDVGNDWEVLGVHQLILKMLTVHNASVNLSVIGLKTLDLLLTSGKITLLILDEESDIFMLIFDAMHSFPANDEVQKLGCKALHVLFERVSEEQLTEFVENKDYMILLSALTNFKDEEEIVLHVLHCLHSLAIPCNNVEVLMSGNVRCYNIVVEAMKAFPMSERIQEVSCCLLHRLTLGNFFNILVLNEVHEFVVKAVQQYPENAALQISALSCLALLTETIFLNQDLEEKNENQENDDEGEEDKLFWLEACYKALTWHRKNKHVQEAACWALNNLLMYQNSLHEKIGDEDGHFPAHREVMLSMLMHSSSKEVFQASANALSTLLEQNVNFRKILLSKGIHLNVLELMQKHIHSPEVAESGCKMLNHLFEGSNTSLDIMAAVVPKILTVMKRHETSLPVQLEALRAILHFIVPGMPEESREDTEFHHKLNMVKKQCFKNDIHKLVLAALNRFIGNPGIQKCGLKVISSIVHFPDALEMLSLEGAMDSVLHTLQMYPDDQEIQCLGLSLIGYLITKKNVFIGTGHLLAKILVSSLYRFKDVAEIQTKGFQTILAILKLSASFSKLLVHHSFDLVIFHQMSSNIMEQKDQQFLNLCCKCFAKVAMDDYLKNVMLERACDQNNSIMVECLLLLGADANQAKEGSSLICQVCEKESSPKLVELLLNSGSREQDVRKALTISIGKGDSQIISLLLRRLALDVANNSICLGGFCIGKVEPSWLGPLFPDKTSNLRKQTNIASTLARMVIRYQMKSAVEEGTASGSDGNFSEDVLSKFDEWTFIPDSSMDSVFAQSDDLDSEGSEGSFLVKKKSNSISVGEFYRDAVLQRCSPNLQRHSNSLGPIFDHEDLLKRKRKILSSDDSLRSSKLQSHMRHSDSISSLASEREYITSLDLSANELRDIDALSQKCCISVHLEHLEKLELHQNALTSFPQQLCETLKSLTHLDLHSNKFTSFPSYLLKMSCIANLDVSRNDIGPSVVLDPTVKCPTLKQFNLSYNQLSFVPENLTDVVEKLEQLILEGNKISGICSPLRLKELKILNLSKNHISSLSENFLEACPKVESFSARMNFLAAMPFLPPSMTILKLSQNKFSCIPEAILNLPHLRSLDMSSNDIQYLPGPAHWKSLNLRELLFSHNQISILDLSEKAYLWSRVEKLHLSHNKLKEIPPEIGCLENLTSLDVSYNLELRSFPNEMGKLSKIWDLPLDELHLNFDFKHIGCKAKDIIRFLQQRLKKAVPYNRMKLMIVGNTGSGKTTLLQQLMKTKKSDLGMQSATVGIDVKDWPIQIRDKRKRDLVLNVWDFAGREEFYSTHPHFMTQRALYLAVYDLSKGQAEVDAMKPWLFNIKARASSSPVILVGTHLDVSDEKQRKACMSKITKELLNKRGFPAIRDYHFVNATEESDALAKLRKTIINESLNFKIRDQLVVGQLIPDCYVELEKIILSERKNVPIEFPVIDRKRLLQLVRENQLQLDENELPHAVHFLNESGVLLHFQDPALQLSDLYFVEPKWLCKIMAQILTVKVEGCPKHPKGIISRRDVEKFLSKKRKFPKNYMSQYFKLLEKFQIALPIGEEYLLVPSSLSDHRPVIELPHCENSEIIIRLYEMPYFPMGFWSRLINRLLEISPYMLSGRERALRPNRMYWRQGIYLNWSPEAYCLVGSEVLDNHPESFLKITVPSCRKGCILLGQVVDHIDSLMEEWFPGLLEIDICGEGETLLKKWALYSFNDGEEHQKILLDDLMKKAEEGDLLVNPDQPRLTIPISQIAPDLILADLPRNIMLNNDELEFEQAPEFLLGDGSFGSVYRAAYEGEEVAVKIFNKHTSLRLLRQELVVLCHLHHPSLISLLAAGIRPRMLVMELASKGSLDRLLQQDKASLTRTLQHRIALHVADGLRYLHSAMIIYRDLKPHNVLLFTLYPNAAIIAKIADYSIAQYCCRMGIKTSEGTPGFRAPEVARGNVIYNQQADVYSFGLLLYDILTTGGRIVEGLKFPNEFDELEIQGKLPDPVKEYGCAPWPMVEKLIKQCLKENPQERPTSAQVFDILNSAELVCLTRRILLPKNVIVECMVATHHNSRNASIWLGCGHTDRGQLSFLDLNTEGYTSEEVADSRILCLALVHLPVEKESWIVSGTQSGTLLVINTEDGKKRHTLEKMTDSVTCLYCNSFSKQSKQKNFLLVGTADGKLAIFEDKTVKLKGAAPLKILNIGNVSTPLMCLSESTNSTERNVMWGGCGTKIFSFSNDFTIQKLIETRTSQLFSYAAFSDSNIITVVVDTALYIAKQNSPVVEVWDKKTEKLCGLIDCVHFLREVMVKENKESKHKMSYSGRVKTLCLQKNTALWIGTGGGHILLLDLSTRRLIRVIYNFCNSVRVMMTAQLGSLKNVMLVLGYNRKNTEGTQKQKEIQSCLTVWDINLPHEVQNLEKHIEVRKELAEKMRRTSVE

[14] = target: Non-receptor tyrosine-protein kinase TYK2 (Homo sapiens, UniProt P29597); test: Inhibition of human TYK2 using 5FAM-KKSRGDYMTMQID as substrate by caliper microfluidic mobility shift assay
[15] = Downregulation of JAK3 mRNA expression in human PBMC at 1 uM after 22 hrs by qPCR analysis relative to control; format: functional
[16] = Downregulation of JAK2 mRNA expression in human PBMC at 1 uM after 22 hrs by qPCR analysis relative to control; format: functional
[17] = target: T3, Tyrosine-protein kinase JAK3 (Homo sapiens, UniProt P52333); test: Inhibition of human JAK3 using FITC-KGGEEEEYFELVKK as substrate by caliper microfluidic mobility shift assay
T3 sequence (P52333 whole entry): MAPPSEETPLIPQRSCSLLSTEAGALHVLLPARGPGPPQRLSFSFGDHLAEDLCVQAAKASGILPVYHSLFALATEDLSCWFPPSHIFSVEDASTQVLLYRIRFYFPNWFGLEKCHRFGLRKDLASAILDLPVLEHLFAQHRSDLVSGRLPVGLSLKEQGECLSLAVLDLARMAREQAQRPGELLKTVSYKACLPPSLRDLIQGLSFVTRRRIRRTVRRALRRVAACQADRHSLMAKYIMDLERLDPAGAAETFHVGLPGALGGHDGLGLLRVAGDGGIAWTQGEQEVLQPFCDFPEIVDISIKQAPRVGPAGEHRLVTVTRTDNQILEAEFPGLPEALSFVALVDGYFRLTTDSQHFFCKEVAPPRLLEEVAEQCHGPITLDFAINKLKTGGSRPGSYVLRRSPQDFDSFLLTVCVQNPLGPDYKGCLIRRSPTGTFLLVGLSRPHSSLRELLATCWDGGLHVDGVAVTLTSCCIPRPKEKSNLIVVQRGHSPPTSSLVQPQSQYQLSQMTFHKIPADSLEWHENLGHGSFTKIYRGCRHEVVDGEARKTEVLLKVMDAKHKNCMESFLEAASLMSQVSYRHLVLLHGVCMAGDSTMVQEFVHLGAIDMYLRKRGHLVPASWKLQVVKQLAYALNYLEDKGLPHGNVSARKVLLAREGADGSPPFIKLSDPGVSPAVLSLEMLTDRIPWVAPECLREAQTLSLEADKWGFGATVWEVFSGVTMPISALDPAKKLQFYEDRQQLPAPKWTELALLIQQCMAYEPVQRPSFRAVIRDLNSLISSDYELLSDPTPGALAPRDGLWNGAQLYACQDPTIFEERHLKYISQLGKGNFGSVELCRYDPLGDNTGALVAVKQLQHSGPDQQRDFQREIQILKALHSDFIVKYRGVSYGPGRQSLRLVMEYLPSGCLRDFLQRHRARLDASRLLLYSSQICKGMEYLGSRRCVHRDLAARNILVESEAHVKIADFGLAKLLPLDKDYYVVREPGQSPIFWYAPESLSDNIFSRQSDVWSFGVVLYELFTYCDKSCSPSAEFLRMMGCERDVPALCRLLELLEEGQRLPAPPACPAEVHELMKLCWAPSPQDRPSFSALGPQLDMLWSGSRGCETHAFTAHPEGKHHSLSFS

[18] = target: Tyrosine-protein kinase JAK1 (Homo sapiens, UniProt P23458); test: Inhibition of human JAK1 using 5FAM-KKSRGDYMTMQID as substrate by caliper microfluidic mobility shift assay
Tyrosine-protein kinase JAK1, sequence (P23458 whole entry): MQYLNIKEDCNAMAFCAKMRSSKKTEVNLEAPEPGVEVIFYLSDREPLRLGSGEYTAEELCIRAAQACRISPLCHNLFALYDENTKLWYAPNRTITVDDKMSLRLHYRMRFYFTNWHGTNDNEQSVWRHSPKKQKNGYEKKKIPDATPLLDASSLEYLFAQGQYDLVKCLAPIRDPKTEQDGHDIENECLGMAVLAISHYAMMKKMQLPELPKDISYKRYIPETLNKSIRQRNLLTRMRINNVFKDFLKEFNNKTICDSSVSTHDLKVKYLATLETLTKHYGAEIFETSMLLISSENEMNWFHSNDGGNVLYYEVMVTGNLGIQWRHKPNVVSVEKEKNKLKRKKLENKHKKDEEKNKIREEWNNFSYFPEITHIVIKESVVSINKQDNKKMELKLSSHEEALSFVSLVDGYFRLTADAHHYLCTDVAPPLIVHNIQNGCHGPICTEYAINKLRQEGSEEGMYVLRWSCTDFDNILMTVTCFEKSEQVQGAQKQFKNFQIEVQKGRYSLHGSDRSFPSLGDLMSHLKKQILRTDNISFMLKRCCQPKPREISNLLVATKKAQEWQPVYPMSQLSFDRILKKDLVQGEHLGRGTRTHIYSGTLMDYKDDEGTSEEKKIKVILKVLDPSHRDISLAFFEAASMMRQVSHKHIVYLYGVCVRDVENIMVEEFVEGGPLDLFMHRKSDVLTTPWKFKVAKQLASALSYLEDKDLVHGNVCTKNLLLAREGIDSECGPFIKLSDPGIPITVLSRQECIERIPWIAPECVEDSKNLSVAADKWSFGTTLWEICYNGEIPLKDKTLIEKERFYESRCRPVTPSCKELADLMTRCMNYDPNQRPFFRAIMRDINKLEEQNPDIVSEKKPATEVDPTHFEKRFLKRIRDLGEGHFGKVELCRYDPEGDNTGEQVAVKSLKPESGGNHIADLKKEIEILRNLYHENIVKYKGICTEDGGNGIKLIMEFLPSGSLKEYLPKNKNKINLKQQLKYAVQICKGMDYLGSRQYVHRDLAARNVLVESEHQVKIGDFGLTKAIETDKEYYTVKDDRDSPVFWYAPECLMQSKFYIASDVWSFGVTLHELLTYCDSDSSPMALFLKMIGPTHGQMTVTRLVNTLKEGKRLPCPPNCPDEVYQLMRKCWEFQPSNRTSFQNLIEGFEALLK

[19] = target: Tyrosine-protein kinase JAK2 (Homo sapiens, UniProt O60674); test: Inhibition of human JAK2 using FITC-KGGEEEEYFELVKK as substrate by caliper microfluidic mobility shift assay
[20] = target: Histone-lysine N-methyltransferase EZH2 (Homo sapiens, UniProt Q15910); test: Binding affinity to EZH2 (unknown origin)
Histone-lysine N-methyltransferase EZH2, sequence (Q15910 whole entry, the tested form may be a part): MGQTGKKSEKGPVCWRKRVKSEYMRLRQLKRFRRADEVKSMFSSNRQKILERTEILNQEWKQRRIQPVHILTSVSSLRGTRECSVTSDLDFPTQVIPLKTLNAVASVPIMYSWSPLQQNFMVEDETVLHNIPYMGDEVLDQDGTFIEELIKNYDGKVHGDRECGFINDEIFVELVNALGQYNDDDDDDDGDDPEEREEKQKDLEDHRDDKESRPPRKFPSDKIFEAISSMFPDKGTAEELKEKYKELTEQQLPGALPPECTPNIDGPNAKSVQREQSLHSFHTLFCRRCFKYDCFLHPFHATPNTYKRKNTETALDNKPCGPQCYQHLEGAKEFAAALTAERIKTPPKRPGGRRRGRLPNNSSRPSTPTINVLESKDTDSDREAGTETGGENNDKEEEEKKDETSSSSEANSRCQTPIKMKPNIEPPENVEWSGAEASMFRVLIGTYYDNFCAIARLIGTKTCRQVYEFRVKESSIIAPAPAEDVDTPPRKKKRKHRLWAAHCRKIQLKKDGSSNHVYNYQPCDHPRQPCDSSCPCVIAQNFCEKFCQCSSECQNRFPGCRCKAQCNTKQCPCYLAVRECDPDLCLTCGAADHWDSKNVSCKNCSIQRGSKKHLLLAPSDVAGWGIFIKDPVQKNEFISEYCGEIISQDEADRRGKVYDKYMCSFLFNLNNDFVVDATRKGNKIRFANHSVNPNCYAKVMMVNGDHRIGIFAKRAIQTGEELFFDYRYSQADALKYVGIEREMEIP

[21] = target: T1, B-cell lymphoma 6 protein; test: Inhibition of BCOR peptide binding to BCL6 BTB domain (5 to 129 residues) C8Q/C67R/C84N triple mutant (unknown origin) expressed in Escherichia coli BL21(DE3) cells preincubated for 30 mins followed by BCOR ULight peptide addition and measured after 240 mins by TR-FRET assay

SMILES: Cc1cc(C)n(-c2ncc(Cl)c(Nc3ccc(Cl)cc3)n2)n1
IC50 [1]: 18 µM

SMILES: COc1cc(Nc2ncc3c(n2)-c2ccc(Cl)cc2C(c2c(F)cccc2OC)=NC3)ccc1C(=O)O [ALISERTIB]
Emax [2]: 37%

SMILES: O=C(Nc1ccc(Nc2nccc(Nc3cc(C4CCCC4)[nH]n3)n2)cc1)Nc1cccc(C(F)(F)F)c1
Emax [2]: 14%
EC50 [3]: 0.223 µM

SMILES: CC(=O)N1CCN(CCOc2ccc(C3CCN(C4=Nn5c(nnc5C(F)(F)F)CC4)CC3)cc2)CC1 [AZD3514]
Ki [4]: 5 µM

SMILES: C[C@H]1[C@@H](O)O[C@@H]2O[C@@]3(C)CC[C@H]4[C@H](C)CC[C@@H]1[C@@]24OO3 [ARTENIMOL]
Ratio IC50 [5]: 5
Ratio IC50 [6]: 5
IC50 [7]: 1 µM
IC50 [8]: 1 µM

SMILES: CN[C@@H](C)C(=O)N[C@H](C(=O)N1CCC[C@H]1C(=O)N[C@H](C(=O)OC)C(c1ccccc1)c1ccccc1)C1CCCCC1 (H-[NMeA][Chg]P[Dip]-OMe)
Kd [11]: 0.006 µM
Kd [12]: 0.016 µM

SMILES: CNc1nc(Nc2cn(C(C)(C)C#N)nc2C)ncc1C(F)(F)F [DNL-201]
Ki [13]: 0.0006 µM

SMILES: C[C@@H]1CCN(C(=O)N2CCCC2)C[C@@H]1N(C)c1ncnc2[nH]ccc12
IC50 [14]: 0.128 µM
Activity [15]: 50%
Activity [16]: 50%
IC50 [17]: 0.0028 µM
IC50 [18]: 0.0075 µM
IC50 [19]: 0.0071 µM

SMILES: CCNc1nc(Nc2cc(F)c(C(=O)N3CCOCC3)cc2OC)ncc1C(F)(F)F
Ki [13]: 0.001 µM

Second part, the compound after the results:

Activity [9]: > 90%
Activity [10]: 50%
SMILES: CNC(=O)COc1cc2cc(Nc3nc(N4CCC(C(=O)N(C)C)CC4)ncc3Cl)cc(OC)c2n(C)c1=O

Kd [20]: 0.116 µM
SMILES: CCOCCNC(=O)/C(C)=C/CC12OC(C)(C)C3CC(C=C4C(=O)c5c(O)c(C/C=C(\C)CCC=C(C)C)c(O)c(CC=C(C)C)c5OC431)C2=O (stereo unspecified)

Activity [9]: > 90%
Activity [10]: 50%
IC50 [21]: 0.003 µM
SMILES: CNC(=O)COc1cc2cc(Nc3nc(N4C[C@H](C)C[C@H](C)C4)ncc3Cl)cc(OC)c2n(C)c1=O

Kd [20]: 0.182 µM
SMILES: CC(C)=CCC/C(C)=C/Cc1c(O)c(CC=C(C)C)c2c(c1O)C(=O)C1=CC3CC4C(C)(C)OC(C/C=C(\C)C(=O)O)(C3=O)C14O2 (stereo unspecified)
